Activity calls are given as the source filed them. The rule behind the calls is not given here.

Assay [1] deals with Transient receptor potential cation channel subfamily V member 1 (Homo sapiens, UniProt Q8NER1). The assay can be described thus: Inhibition of calcium influx evoked by capsaicin in human TRPV1 expressing cells by fluorescence assay. It counts as functional.
Assay [2] has as its target Transient receptor potential cation channel subfamily V member 1 (Rattus norvegicus) (UniProt O35433). The assay can be described thus: Inhibition of calcium influx evoked by capsaicin in rat TRPV1 expressing cells by fluorescence assay. It counts as functional, cell-based.

Chain of Transient receptor potential cation channel subfamily V member 1 (Q8NER1 whole entry): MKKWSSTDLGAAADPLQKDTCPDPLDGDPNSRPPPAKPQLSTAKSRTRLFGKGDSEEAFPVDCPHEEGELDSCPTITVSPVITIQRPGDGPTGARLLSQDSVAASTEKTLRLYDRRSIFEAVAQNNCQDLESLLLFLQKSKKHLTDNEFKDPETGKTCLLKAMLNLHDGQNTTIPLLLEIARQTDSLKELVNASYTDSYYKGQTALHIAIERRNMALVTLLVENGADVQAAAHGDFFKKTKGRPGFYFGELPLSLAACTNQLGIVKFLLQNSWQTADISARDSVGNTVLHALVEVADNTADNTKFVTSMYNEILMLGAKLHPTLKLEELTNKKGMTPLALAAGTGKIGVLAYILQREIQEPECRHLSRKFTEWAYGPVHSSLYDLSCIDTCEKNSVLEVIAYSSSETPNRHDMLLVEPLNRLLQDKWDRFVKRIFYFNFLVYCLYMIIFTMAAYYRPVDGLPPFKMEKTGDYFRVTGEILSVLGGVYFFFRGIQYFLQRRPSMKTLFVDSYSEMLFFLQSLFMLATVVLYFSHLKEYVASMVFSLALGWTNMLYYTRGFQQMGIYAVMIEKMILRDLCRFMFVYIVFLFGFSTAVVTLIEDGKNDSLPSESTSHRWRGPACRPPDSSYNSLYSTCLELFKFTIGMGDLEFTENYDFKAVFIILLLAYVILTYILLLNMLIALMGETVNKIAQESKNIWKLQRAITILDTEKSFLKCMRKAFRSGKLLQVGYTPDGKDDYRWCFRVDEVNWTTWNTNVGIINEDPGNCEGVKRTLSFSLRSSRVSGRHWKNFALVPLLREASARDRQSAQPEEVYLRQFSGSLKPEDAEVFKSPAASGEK
Chain of Transient receptor potential cation channel subfamily V member 1 (Rattus norvegicus) (O35433 whole entry): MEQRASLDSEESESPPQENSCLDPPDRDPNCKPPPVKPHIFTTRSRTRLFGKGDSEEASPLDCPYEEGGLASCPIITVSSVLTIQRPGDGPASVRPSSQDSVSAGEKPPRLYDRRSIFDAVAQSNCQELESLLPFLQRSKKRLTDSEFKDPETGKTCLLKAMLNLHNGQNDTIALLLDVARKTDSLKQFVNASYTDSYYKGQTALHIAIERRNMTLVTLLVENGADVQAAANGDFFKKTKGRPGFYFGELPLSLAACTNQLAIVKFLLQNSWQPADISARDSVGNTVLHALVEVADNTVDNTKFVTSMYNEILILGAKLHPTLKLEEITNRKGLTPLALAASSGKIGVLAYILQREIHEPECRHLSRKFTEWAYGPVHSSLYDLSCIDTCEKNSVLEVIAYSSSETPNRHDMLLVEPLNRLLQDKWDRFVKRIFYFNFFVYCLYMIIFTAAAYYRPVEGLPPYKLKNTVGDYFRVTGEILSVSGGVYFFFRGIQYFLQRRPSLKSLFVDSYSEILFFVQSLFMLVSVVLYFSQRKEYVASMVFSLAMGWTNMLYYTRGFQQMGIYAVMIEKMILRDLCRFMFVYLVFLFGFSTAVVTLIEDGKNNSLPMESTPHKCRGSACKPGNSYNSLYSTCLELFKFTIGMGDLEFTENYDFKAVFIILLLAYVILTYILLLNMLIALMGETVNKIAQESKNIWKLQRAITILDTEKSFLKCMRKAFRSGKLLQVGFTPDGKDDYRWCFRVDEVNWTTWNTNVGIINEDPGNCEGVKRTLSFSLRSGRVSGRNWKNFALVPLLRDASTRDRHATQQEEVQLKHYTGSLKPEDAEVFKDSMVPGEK

Consider `CC(C)c1cc2nc(N)[nH]c(=O)c2cc1-c1ccc(Cl)cc1`, for which the IC50 in assay [1] was found to be 133 nM.
The same measure, in the same setting: under `Cc1nc2cc(C(C)C)c(-c3ccc(Cl)c(OCCN(C)C)c3)cc2c(=O)[nH]1` stands 487 nM.
The same measure, in the same setting: under `Cc1nc(O)c2cc(-c3ccc(C)c(Cl)c3)c(C(C)C)cc2n1` stands 42 nM.
As to `CC(C)(C)c1nc2nc(S)nc(O)c2cc1-c1ccc(Cl)cc1`, the result in assay [1] and in assay [2] was inactive.
Take `CCOc1cc(-c2cc3c(=O)[nH]c(C)nc3cc2C(C)C)c(Cl)cc1Cl`: the IC50 in assay [1] was determined as 37 nM.
With `CCCCOc1cc(-c2cc3c(=O)[nH]c(C)nc3cc2C(C)C)ccc1Cl`, the IC50 in assay [1] came to 82 nM.

(Values after ChEMBL document CHEMBL1147725, “Identification and biological characterization of 6-aryl-7-isopropylquinazolinones as novel TRPV1 antagonists that are effective in models of chronic pain” (J Med Chem, 2006).)
